Data as given in patent US6380251B1, “Cyclopentane heptan(ene)oic acid, 2-thiocarbamoyloxy and 2-carbamoyloxy compounds as therapeutic agents” (Allergan Sales, Inc., priority 2000, dated 2002).

system: PGF2α-sensitive receptor provisionally termed FPVASC; assay: relaxation of smooth muscle of isolated rabbit jugular vein; format: cell-based; conditions: not given
Experimental: Activity at different prostanoid receptors was measured in vitro in isolated smooth muscle preparations. FP-activity was measured as contraction of the isolated feline iris sphincter. Activity was also measured as relaxation of smooth muscle of isolated rabbit jugular vein a preparation which appears to contain a unique PGF2α-sensitive receptor provisionally termed FPVASC. TP-vasoconstrictor activity was measured as contraction of rings of the isolated rat thoracic aorta.
Many examples also have pronounced activity at the FP receptor, provisionally termed FP associated with the vascular endothelium in the rabbit jugular vein preparation. Since such agents would be vasodilators they have potential in hypertension and any disease where tissue blood perfusion is compromised. Such indications include, but are not limited to, systemic hypertension, angina, stroke, retinal vascular diseases, claudication, Raynauds disease, diabetes, and pulmonary hypertension.

SMILES | EC50
O=C(O)CCC/C=C\C[C@H]1C(O)CC(O)[C@@H]1COC(=O)NCc1ccccc1 (stereo in doubt) [Example 6, 7-[2-Benzylcarbamoyloxymethyl-3,5-dihydroxycyclopentyl]hept-5-enoic acid] | 14200 nM
O=C(O)CCC/C=C\C[C@H]1C(O)CC(O)[C@@H]1COC(=S)NCc1ccccc1 (stereo in doubt) [Example 9, 7-[2-Benzylthiocarbamoyloxymethyl-3,5-dihydroxycyclopentyl]hept-5-enoic acid] | 427 nM
O=C(O)CCC/C=C\C[C@H]1C(O)CC(O)[C@@H]1COC(=O)Nc1ccccc1 (stereo partly drawn) [Example 3, (Z)-7-((1R,2S,3R,5S)-3,5-Dihydroxy-2-phenzylcarbamoyloxymethylcyclopentyl)-hept-5-enoic acid] | 193000 nM
O=C(O)CCC/C=C\C[C@@H]1[C@@H](COC(=O)NCCc2cccs2)[C@H](O)C[C@@H]1O [Example 10, (Z)-7-[(1R,2S,3R,5S)-3,5-Dihydroxy-2-(2-thiophen-2-ylethylcarbamoyloxymethyl)-cyclopentyl]hept-5-enoic acid] | 32000 nM
CCCCNC(=S)OC[C@@H]1[C@@H](C/C=C\CCCC(=O)O)[C@@H](O)C[C@H]1O [Example 11, (Z)-7-((1R,2S,3R,5S)-2-Butylthiocarbamoyloxymethyl-3,5-dihydroxycyclopentyl)-hept-5-enoic acid] | 171 nM
O=C(O)CCC/C=C\C[C@@H]1[C@@H](COC(=O)NCc2cccc(C(F)(F)F)c2)[C@H](O)C[C@@H]1O [Example 13, (Z)-7-[(1R,2S,3R,5S)-3,5-Dihydroxy-2-(3-trifluoromethylbenzylcarbamoyloxymethyl)cyclopentyl]hept-5-enoic acid] | 2840 nM

Results, then the molecule that gave them:

EC50 | SMILES
3 nM | O=C(O)CCC/C=C\C[C@@H]1[C@@H](COC(=S)NCc2cccc(Cl)c2)[C@H](O)C[C@@H]1O [Example 12, (Z)-7-[(1R,2S,3R,5S)-2-(3-Chlorobenzylthiocarbamoyloxymethyl)-3,5-dihydroxycyclopentyl]hept-5-enoic acid]
178 nM | O=C(O)CCC/C=C\C[C@@H]1[C@@H](COC(=S)NCc2cccc(C(F)(F)F)c2)[C@H](O)C[C@@H]1O [Example 14, (Z)-7-[(1R,2S,3R,5S)-3,5-Dihydroxy-2-(3-trifluoromethylbenzylthiocarbamoyloxymethyl)cyclopentyl]hept-5-enoic acid]
11000 nM | O=C(CCC/C=C\C[C@@H]1[C@@H](COC(=S)NCc2cccc(Cl)c2)[C@H](O)C[C@@H]1O)NCCO [Example 18, (3-Chlorobenzyl)thiocarbamic acid O-{(1S,2R,3S,5R)-3,5-dihydroxy-2-[(Z)-6-(2-hydroxyethylcarbamoyl)hex-2-enyl]cyclopentylmethyl}ester]
2910 nM | CCNC(=O)CCC/C=C\C[C@@H]1[C@@H](COC(=S)NCc2cccc(Cl)c2)[C@H](O)C[C@@H]1O [Example 19, (3-Chlorobenzyl)thiocarbamic acid O-[(1S,2R,3S,5R)-2-((Z)-6-ethylcarbamoylhex-2-enyl)-3,5-dihydroxycyclopentylmethyl]ester]
274 nM | NC(=O)CCC/C=C\C[C@@H]1[C@@H](COC(=S)NCc2cccc(Cl)c2)[C@H](O)C[C@@H]1O [Example 20, (3-Chlorobenzyl)thiocarbamic acid O-[(1S,2R,3S,5R)-2-((Z)-6-carbamoylhex-2-enyl)-3,5-dihydroxycyclopentylmethyl]ester]

system: Dog intraocular pressure; assay: Dog intraocular pressure by applanation pneumatonometry; format: in vivo; conditions: dogs, 25 μl to the ocular surface, contralateral eye vehicle, measured before and at 6 hours; FIGS. 3 and 4
Experimental: The compounds were prepared at the said concentrations in a vehicle comprising 0.1% polysorbate 80 and 10 mM TRIS base. Dogs were treated by administering 25 μl to the ocular surface, the contralateral eye received vehicle as a control. Intraocular pressure was measured by applanation pneumatonometry. Dog intraocular pressure was measured immediately before drug administration and at 6 hours thereafter.

SMILES | effect on intraocular pressure
O=C(O)CCC/C=C\C[C@H]1C(O)CC(O)[C@@H]1COC(=S)NCc1ccccc1 (stereo in doubt) [Example 9, 7-[2-Benzylthiocarbamoyloxymethyl-3,5-dihydroxycyclopentyl]hept-5-enoic acid] | lowered intraocular pressure
O=C(O)CCC/C=C\C[C@@H]1[C@@H](COC(=S)NCc2cccc(Cl)c2)[C@H](O)C[C@@H]1O [Example 12, (Z)-7-[(1R,2S,3R,5S)-2-(3-Chlorobenzylthiocarbamoyloxymethyl)-3,5-dihydroxycyclopentyl]hept-5-enoic acid] | lowered intraocular pressure
